Series [1] has as its system MGC-803. The experiment in a line: Antiproliferative activity against human MGC-803 cells assessed as inhibition of cell growth at 10 uM measured after 72 hrs by SRB assay relative to control. It counts as functional. (In general: The SRB assay estimates cell density from bound dye.)
Series [2] relates to SGC-7901. The experiment in a line: Antiproliferative activity against human SGC-7901 cells assessed as inhibition of cell growth at measured after 72 hrs by SRB assay. The class given is functional.
The test system of series [3] is MKN-45. The experiment in a line: Antiproliferative activity against human MKN-45 cells assessed as inhibition of cell growth at measured after 72 hrs by SRB assay. The class given is functional.
Series [4] concerns MGC-803. Nature of the series: Antiproliferative activity against human MGC-803 cells assessed as inhibition of cell growth at measured after 72 hrs by SRB assay. The class given is functional.
Series [5] has as its system EJ. The experiment in a line: Antiproliferative activity against human EJ cells assessed as inhibition of cell growth at measured after 72 hrs by SRB assay. The class given is functional.
Series [6] relates to GES1. The experiment in a line: Cytotoxicity against human GES1 cells assessed as inhibition of cell growth at measured after 72 hrs by SRB assay. It counts as cell-based. Conditions: ges1, 72 h.
Series [7] concerns A549. Nature of the series: Antiproliferative activity against human A549 cells assessed as inhibition of cell growth at measured after 72 hrs by SRB assay. The class given is functional.
The subject of series [8] is HGC-27. Nature of the series: Antiproliferative activity against human HGC-27 cells assessed as inhibition of cell growth at measured after 72 hrs by SRB assay. It counts as functional.
Series [9] deals with BGC-823. Nature of the series: Antiproliferative activity against human BGC-823 cells assessed as inhibition of cell growth at measured after 72 hrs by SRB assay. It counts as functional.

The source made the active and inactive calls. No cut-off for these calls is given here.

These results are taken from ChEMBL document CHEMBL4706515, “Discovery of new [1,2,4] Triazolo[1,5-a]Pyrimidine derivatives that Kill gastric cancer cells via the mitochondria pathway” (Eur J Med Chem, 2020).

Usually inhibition stands for the share of the control response that was lost under treatment. As usually defined, the GI50 is the concentration giving 50% growth inhibition.

For the compound `O=C(/C=C/c1cccc(Br)n1)c1ccc(Nc2c3c(nc4ncnn24)CCC3)cc1`, the inhibition at 10 µM in [1] was found to be 49.9%.
Turning to `Cc1cc(Nc2ccc(C(=O)/C=C/c3cccc(Br)n3)cc2)n2nc(SCc3ccccc3)nc2n1`, in series [1], the inhibition at 10 µM was determined as 90.2%.
Still for that read-out and setting: as for `O=C(/C=C/c1cccc(Br)n1)c1ccc(Nc2cc(-c3ccccc3)nc3nc(SCc4ccccc4)nn23)cc1`, the figure is 38.3%.
On the same count and under the same terms, under `Cc1nc2nc(SCc3ccc(Cl)cc3)nn2c(Nc2ccc(C(=O)/C=C/c3cccc(Br)n3)cc2)c1C` stands 72.5%.
On the same count and under the same terms, under `Cc1cc(Nc2ccc(C(=O)/C=C/c3ccccc3)cc2)n2nc(SCc3nc4ccccc4[nH]3)nc2n1` stands 94.5%; under `Cc1cc(Nc2ccc(C(=O)/C=C/c3cccc(Br)n3)cc2)n2nc(SCc3ccc(C(F)(F)F)cc3)nc2n1`, 96.6%.
Take `Cc1cc(Nc2ccc(C(=O)/C=C/c3cccc(Br)n3)cc2)n2nc(SCc3ccc(F)cc3)nc2n1`: the inhibition at 10 µM in series [1] was 93.3%.
For the compound `O=c1[nH]cc(F)c(=O)[nH]1` [FLUOROURACIL], the GI50 entry in series [2], in series [3], in series [4], in series [5], in series [7] and in series [8] was “Active” each time. In addition, the GI50 result in [9] is “Active”. Also, the Activity entry in series [6] is “Toxic”.
Take `Cc1cc(Nc2ccc(C(=O)/C=C/c3cccc(Br)n3)cc2)n2ncnc2n1`: in series [1], the inhibition at 10 µM was 58.4%.
With `C#CCSc1nc2nc(-c3ccccc3)cc(Nc3ccc(C(=O)/C=C/c4cccc(Br)n4)cc3)n2n1`, the inhibition at 10 µM in series [1] stood at 56.3%.
With `Cc1cc(Nc2ccc(C(=O)/C=C/c3ccc(Br)cn3)cc2)n2nc(SCc3nc4ccccc4[nH]3)nc2n1`, the GI50 in series [2], in [3], in series [4], in series [8] and in series [9] was 640 nM in each case. Moreover, the GI50 result in series [5] and in series [7] was “inactive” throughout. For the same compound, the Activity result in [6] is “Non-Toxic”. In series [1], the inhibition at 10 µM came to 96.8%.
In the case of `Cc1cc(Nc2ccc(C(=O)/C=C/c3cccc(Br)n3)cc2)n2nc(SCc3ccc([N+](=O)[O-])cc3)nc2n1`, the inhibition at 10 µM in series [1] was found to be 91.6%.
Same read-out and setting: under `Cc1cc(Nc2cc(-c3ccccc3)[nH]n2)n2nc(SCc3nc4ccccc4[nH]3)nc2n1` stands 78.4%.
Turning to `Cc1cc(Nc2ccc(C(=O)/C=C/c3cccc(Br)n3)cc2)n2nc(SCc3ccc(Br)cc3)nc2n1`, the inhibition at 10 µM in [1] came to 96.3%.
Same read-out and setting: as for `CCc1cc(Nc2ccc(C(=O)/C=C/c3cccc(Br)n3)cc2)n2nc(SCc3ccccc3)nc2n1`, the figure is 63%.
The same measure, in the same setting: as for `C#CCSc1nc2nc(C)cc(Nc3ccc(C(=O)/C=C/c4cccc(Br)n4)cc3)n2n1`, the figure is 94.4%; as for `Cc1cc(Nc2ccccc2)n2nc(SCc3nc4ccccc4[nH]3)nc2n1`, 22.4%; as for `Cc1cc(Nc2ccc(C(=O)/C=C/c3cccc(Br)n3)cc2)n2nc(SCc3ccc(Cl)cc3)nc2n1`, 90.2%.
The same measure, in the same setting: under `Cc1cc(Nc2ccc(N3CCN(C)CC3)cc2)n2nc(SCc3nc4ccccc4[nH]3)nc2n1` stands 78.1%; under `Cc1cc(Nc2ccc(C(=O)/C=C/c3cccc(Br)n3)cc2)n2nc(SCc3ccccc3[N+](=O)[O-])nc2n1`, 92.3%.
On to `Cc1cc(Nc2ccc(C(=O)/C=C/c3cccc(Br)n3)cc2)n2nc(SCCCc3ccccc3)nc2n1`, for which the inhibition at 10 µM in series [1] turned out to be 76.7%.
